Here are results for 3 molecules from EP0442757A2, “Therapeutic nucleosides” (THE WELLCOME FOUNDATION LIMITED, priority 1990, dated 1991).

Holding throughout (type): cell-based
In series [1] the test system is HIV-1. Kind of series: Antiviral MT4 assay (reversal of HIV cytopathic effect, MTT uptake). Particulars: MTT uptake at fifth day post infection, several values per cell, read-out: IC50 vs HIV-1 (μM) MT-4 (converted). Here is the method: Antiviral activity against the Human Immunodeficiency Virus (HIV) was determined according to the method of Pauwels et al, J.Virol.Methods, 1988 20 309-321 by measuring the ability of the compound to reverse the cytopathic effect of HIV infection. This was determined by a quantitative assessment of cell growth monitored at the fifth day post infection by a tetrazolium dye (MTT) uptake test. Subconfluent (20-40,000 cells/well) human T lymphocyte cell line MT4 cells infected with HIV were grown in 96-well microtiter dishes and exposed to different dilutions of drug. After 5 days, the dye intake test was performed on drug treated cultures and on HIV infected and mock infected MT4 cells. Under the conditions of the test, HIV infection caused extensive cytopathic effect and prevented cell growth by >80%. The antiviral effect of a drug is reported as an IC-50, i.e. as the inhibitory concentration that would protect 50% of the cells from cell killing, measured as 50% of that cell growth determined for uninfected MT4 cell controls.
(Protection from cytopathic effect is a common read-out in antiviral testing.)

In series [2] the test system is HIV-1. In words: PBL assay (P24 capsid antigen ELISA in human peripheral blood lymphocytes). The settings on record: human PBL's stimulated with IL2 and PHA, P24 ELISA after 4 days incubation at 37°C, several values per cell. On the procedure:
HIV assays were carried out in human peripheral blood lymphocytes (PBL's) prepared by fractionation of fresh human […] on Ficoll gradients as described by Hartmann H. et al. Aids Research and Human Retroviruses, 1988, 4 457-466. The isolated PBL's were stimulated with growth factors IL2 and PHA for 3 days before infection with HIV. Growth of virus was monitored, after 4 days incubation at 37°C, by quantitative ELISA assays of the capsid antigen, P24. A range of concentrations of compound of known molarity was incorporated into the medium. Yield of P24 at each concentration are expressed as a percentage of the control and a dose response curve is drawn. From this curve the 50% inhibitory concentration (IC50) is estimated.

Series [3] concerns HIV-1. In words: HeLa-CD4+ cell assay (plaque reduction in HT4-6C cell monolayers). Particulars: Human immunodeficiency virus 1, plaque reduction after 2-3 days, method calls the value ID50. Here is the method: Susceptibility of HIV to inhibitors was determined by infection of HT4-6C cell monolayers as described by Larder, B.A., Chesebro, B. & Richman, D.D. Antimicrob. Agents Chemother. 1990 34, 436-441. Briefly cells were seeded in 24-well multiwells at 5x10⁴ cells per well and incubated overnight at 37°C in growth medium (DMEM10). Monolayers were infected with 100-200pfu of cell-free virus in 0.2ml of DMEM containing 5% fetal bovine serum plus antibiotics (DMEM5) and incubated for 1 hour at 37°C to allow virus adsorption. Following this time, 0.8ml of DMEM5 (with or without inhibitor) was added to each well and cultures were incubated at 37°C for 2-3 days. Monolayers were fixed with 10% formaldehyde solution in PBS and stained with 0.25% crystal violet in order to visualize virus plaques. Individual foci of multinucleated gian cells (plaques) were apparent using this staining procedure. ID₅₀ values were derived from plots of percent plaque reduction versus inhibitor concentration.

Series [4] is described as follows: Cell toxicity, cell growth inhibition assay (MTT uptake). Particulars: CCID-50: 50% inhibition of cell viability at 5 days; uninfected MT4 cells or vero cells (not stated which); read-out: TOX. On the procedure: Cell toxicity was assessed in a cell growth inhibition assay on uninfected MT4 cells or on vero cells in a 96-well microtiter dish. Identical cell numbers of uninfected cells were exposed to different dilutions of drug and cell viability determined daily on replicate cultures using uptake of MTT. The concentration required for a 50% inhibition of cell viability at 5 days is termed CCID-50.

Setting [5] is: Human immunodeficiency virus 1, Lymphocyte, 96 h.

As a reminder, the IC50 is the point on the concentration scale where inhibition reaches its midpoint. On to `COCc1cn([C@H]2C[C@H](F)[C@@H](CO)O2)c(=O)[nH]c1=O` [2′,3′-Dideoxy-3′-fluoro-5-methoxymethyluridine], for which the IC50 was 8.4 µM in the series with HIV-1 [1] (Human immunodeficiency virus 1, MT4, MT4 cells infected with HIV); 6.4 µM with HIV-1 [1] (MT4 cells infected with HIV); 1.89 µM with HIV-1 [2] (setting [5]); 11.9 µM with HIV-1 [3]. In series [4], the CC50 at 120 h was above 500 µM.
`CSCc1cn([C@H]2C[C@H](F)[C@@H](CO)O2)c(=O)[nH]c1=O` [2′,3′-Dideoxy-3′-fluoro-5-methylthiomethyluridine] gave an IC50 in the series with HIV-1 [3] of 4.2 µM. Also, the CC50 at 120 h in series [4] is above 200 µM.
Turning to `CCOCc1cn([C@H]2C[C@H](F)[C@@H](CO)O2)c(=O)[nH]c1=O` [2′,3′-Dideoxy-5-ethoxymethyl-3′-fluorouridine], the IC50 in the series with HIV-1 [2] (setting [5]) is 1.52 µM; in the series on HIV-1 [2], 1.63 µM; in the series with HIV-1 [3], 6.3 µM. Also, the CC50 at 120 h in series [4] is above 200 µM.
